# Results taken from patent US20180371408A1, “CELL CULTURES AND METHODS OF USE” (priority 2017, published 2018).
# Read-outs that look alike come from different tables or passages of the source.
# Experiments:
# [1] = system: Spermatogonial cells (C18-4); test: cells; format: cell-based, mouse; settings: Mus musculus, read-out: IC50
# [2] = system: Leydig cells (TM3); test: cells; format: cell-based, mouse; settings: Mus musculus, Leydig, read-out: IC50
# [3] = system: Sertoli cells (TM4); test: cells; format: cell-based, mouse; settings: Mus musculus, read-out: IC50
# [4] = NR dye uptake assay, co-cultures treated with BPA and analogs (Example 2); settings: mouse
# Procedure: (§1) The testicular cell co-culture model was established as reported in Example 1 Briefly, mouse spermatogonial cell line C18-4 was established via germ cells isolated from the testes of 6 day old Balb/c mice. […] Mouse Leydig (TM3) and Sertoli (TM4) cell lines were purchased from ATCC, and these cells were isolated from prepubertal mouse gonads. C18-4 cells were maintained in DMEM composed of 5% FBS, and 100 U/ml streptomycin and penicillin in a 33° C., 5% CO2 humidified environment in a sub-confluent condition, and were passaged every 3-4 days TM3 and TM4 cells were cultured in DME/F12 composed of 1.25% FBS, 2.5% horse serum, and 100 U/ml streptomycin and penicillin at 37° C., 5% CO2 in a sub-confluent condition, and were passaged every 2-3 days. When the cells reached 70-80% confluence, a total of 1.5×10^4 cells per well were inoculated into a 96-well plate. […] The co-cultures were maintained in DMEM composed of 2.5% Nu-serum, and 100 U/ml streptomycin and penicillin in a 33° C., 5% CO2 humidified environment.
# (§2) Cell viability was determined through the Neutral Red uptake assay, which is based on the ability of viable cells to incorporate NR dye into their lysosomes, while the dye is not retained if the cell dies (Repetto et al., 2008). […] The vehicle controls were set as the co-cultures treated with the vehicle (0.05% DMSO) After the treatments, the culture medium was replaced by fresh medium containing NR (50 μg/ml). After a 3 h incubation period, the co-cultures were washed with phosphate buffered saline (PBS), and the NR dye was eluted with 100 μl of a 0.5% acetic acid/50% ethanol solution. The plate was then gently shaken, and absorbance values were measured at 540 nm with a Synergy HT microplate reader (BioTek, VT). Cell viability was presented as a percentage of the mean of vehicle controls after subtracting background readings.
# (§3) The data obtained from the HCS Studio·8 2.0 TargetActivation BioApplication, CellProfiler and CellProfiler Analyst were exported and further analyzed using the JMP statistical analysis package (SAS Institute, NC). To remove cell clumps, nuclei with areas larger than […] were excluded. […] For intra-plate normalization, data were normalized to the overall scaling factors, which was the mean of medians of the vehicle controls in each plate. The single cell-based data were averaged for the well-based condition. BrdU-positive cells were set by the total intensity of BrdU in the control at over 25,000 pixels. γ-H2AX positive cells were set by the total intensity of γ-H2AX in the control at over 120,000 pixels. The median lethal concentrations (LC50) were calculated using a nonlinear regression curve fit on GraphPad Prism 5 (San Diego, Calif.). To examine the correlation between the cytoskeleton and DNA damage responses in multinucleated cells, the Spearman correlation analysis was conducted between the total intensity of F-actin and γ-H2AX for 24, 48, and 72 h using cell-based data. Data were presented as mean±standard deviation (SD). Statistical significance was determined using one-way ANOVA followed by Tukey-Kramer all pairs comparison. The p-value less than 0.05 denoted a significant difference compared to the vehicle control (*).
# [5] = system: testicular cell co-culture (C18-4, TM4, TM3); test: as above
# Procedure: as §1, §2, §3
# [6] = system: testicular cell co-culture (C18-4, TM4, TM3); test: High-content image analysis of nuclear morphology and cell number; format: cell-based, mouse
# Procedure: (§4) BrdU incorporation, cell fixation, BrdU, and DNA staining followed the previously published protocol (Liang, et al., 2017b). the determination of DNA damage responses and cytoskeleton analysis was conducted after cell fixation. The cells were then permeabilized by a 0.1% Triton X-100 in PBS, and then incubated with a mouse-anti phosphor-histone H2AX (Ser139) (γ-H2AX) overnight at 4° C. […] Finally, prior to acquiring the images, the cells were stained with Alexa Fluor 488 Phallodin for 30 minutes to stain the F-actin (Liang, et al., 2017)
# (§5) Multi-channel images were then automatically acquired using an Arrayscan™ VTI HCS reader (Thermo Scientific, MA) with the HCS Studio 2.0 Target Activation BioApplication module. Forty-nine fields per well were acquired at 20× and 40× magnification using a Hamamatsu ROCA-ER digital camera in combination with a 0.63× coupler and Carl Zeiss microscope optics in auto-focus mode. Image smoothing was conducted in order to reduce object fragmentation prior to the primary object identification that takes place in the first channel. Channel one (Ch1) applied the BGRFR 386_23 for Hoechst 33342 that was used for auto-focus, object identification, and segmentation. The border objects were then excluded. Channel two (Ch2) applied applied the BGRFR 549_15, which identified the BrdU staining and BGRFR 485_20 to identify the F-actin staining. BGRFR 650_13 was applied in Channel three (Ch3) and identified the γ-H2AX staining.
# (§6) Multi-Channel images were analyzed using HCS Studio™2.0 TargetActivation BioApplication. Multiple parameters of nuclei were characterized in HCA, including nuclei number, nuclear area, shape, and total DNA intensity. Nuclear shape measurements included P2A, a ratio of the nuclear perimeter squared to 4it*nucleus area (perimeter^2/4π*enuclear area) to evaluate nuclear smoothness, and LWR, a ratio of the nuclear length to width, to measure nuclear roundness. For a fairly round and smooth object, the values for P2A and LWR are around 1.0. Total intensity was defined as total pixel intensity within a cell in the respective channel. The total intensities of BrdU, γ-H2AX, and F-actin of the individual cells were also quantified. With forty-nine 20× images acquired from each well, at least 1,000 cells were analyzed per well, and single-cell based data were extracted for further analysis. The experiments were performed with at least four biological replicates and repeated twice.
# (§7) Data were presented as mean±standard deviation (SD).
# [7] = system: testicular cell co-culture (C18-4, TM4, TM3); test: BrdU incorporation (DNA synthesis) and cell cycle HCA; format: cell-based, mouse
# Procedure: as §4, §6, §7
# [8] = system: testicular cell co-culture (C18-4, TM4, TM3); test: HCA of F-actin cytoskeleton and γ-H2AX DNA damage response; format: cell-based, mouse; settings: for effect on F-actin cord-like structures, in words: FIG. 14A: BPA and BPS 100 μM, BPAF 5 and 15 μM, TBBPA 15 μM, 48 h; for doses inducing DNA damage response (γ-H2AX): co-culture model; for γ-H2AX expression, in words: co-cultures, up to 100 μM
# Procedure: as §4, §5, §6, §7
Compound,IC50 ([1]; 24 h),IC50 ([1]; 48 h),IC50 ([2]; 24 h),IC50 ([2]; 48 h),IC50 ([3]; 24 h),IC50 ([3]; 48 h),CC50 at 72 h [4],"doses significantly decreasing cell viability ([5]; 24, 48, and 72 h)","doses reducing cell number ([6]; 24, 48, and 72 h)","doses with significant increase in nuclear area ([6]; 24, 48, and 72 h)",doses significantly increasing P2A ([6]; 24 and 48 h),doses significantly reducing LWR (nuclear roundness) ([6]; 72 h),doses significantly reducing P2A (nuclear smoothness) ([6]; 72 h),"effect on F-actin cord-like structures, in words [8]",doses inducing DNA damage response (γ-H2AX) [8],doses significantly decreasing cell viability ([5]; 24 h),doses significantly reducing cell number ([6]; 24 h),"γ-H2AX expression, in words [8]",also measured
"CC(C)(c1cc(Br)c(O)c(Br)c1)c1cc(Br)c(O)c(Br)c1 [TBBPA, 2,2′,6,6′-Tetrabromo-4,4′-isopropylidenediphenol]",74.9 µM,55 µM,70 µM,60 µM,60 µM,38 µM,16.8 µM,≥ 25 µM,≥ 10 µM,15 µM,15 µM,15 µM,15 µM,dramatically perturbed these structures,15 µM,–,–,–,doses with significant decrease in BrdU-positive cells ([7]; 48 and 72 h): 15 µM
"Oc1ccc(C(c2ccc(O)cc2)(C(F)(F)F)C(F)(F)F)cc1 [BPAF, 4,4′-(Hexafluoroisopropylidene)diphenol]",70 µM,58.5 µM,30 µM,20 µM,55.4 µM,22.3 µM,8.5 µM,≥ 5 µM,≥ 2.5 µM,–,5 µM,15 µM,15 µM,dramatically perturbed these structures,≥ 5 µM,–,–,–,"toxicity ranking among BPA and analogs ([5]; co-culture model, followed by TBBPA, BPA, and BPS): highest toxicity; doses significantly increasing LWR ([6]; 24 and 48 h): 5 µM; doses with significant increase in nuclear area ([6]; 24 h): 10 µM; HCA-based cell cycle analysis, in words [7]: significantly induced G2/M phase arrest; dose inducing BrdU-positive cells ([7]; 72 h): 10 µM; doses with significant decrease in BrdU-positive cells ([7]; 72 h): 15 µM"
"O=S(=O)(c1ccc(O)cc1)c1ccc(O)cc1 [BPS, 4,4′-Sulfonyldiphenol]",505 µM,357 µM,435 µM,≥ 400 µM,211 µM,74.3 µM,–,–,–,–,–,–,–,induced no notable changes,–,≥ 400 µM,100 µM,did not induce γ-H2AX expression,doses with significant increase in nuclear area ([6]; 72 h): 100 µM; doses with significant decrease in BrdU-positive cells ([7]; 24 h): 100 µM; doses with significant increase in F-actin total intensity ([8]; 24 and 48 h): 100 µM
"CC(C)(c1ccc(O)cc1)c1ccc(O)cc1 [BPA, 4,4′-(propane-2,2-diyl) diphenol]",190 µM,184 µM,88 µM,80.5 µM,89 µM,79 µM,150 µM,–,–,100 µM,–,–,–,dramatically perturbed these structures,–,≥ 200 µM,100 µM,did not induce γ-H2AX expression,doses significantly reducing LWR (nuclear roundness) ([6]; 48 and 72 h): ≥ 25 µM; doses significantly reducing LWR (nuclear roundness) ([6]; 24 h): ≥ 50 µM; doses significantly reducing P2A (nuclear smoothness) ([6]; 24 h): 50 µM; doses with significant decrease in nuclear area ([6]; 24 h): ≥ 10 µM; doses with significant decrease in BrdU-positive cells ([7]; 24 and 48 h): 100 µM; doses with significant increase in F-actin total intensity ([8]; 72 h): 100 µM
